Measured values: US20140242093A1, “METHODS AND COMPOSITIONS FOR MODULATING THE INNATE IMMUNE RESPONSE AND/OR MYOGENESIS IN A MAMMALIAN SUBJECT” (FRED HUTCHINSON CANCER RESEARCH CENTER, priority 2011, published 2014)

System: control human primary myoblasts
Experiment: Expression microarray of primary myoblasts transduced with lentivirus carrying DUX4-fl, DUX4-s or GFP
Protocol: Primary human myoblasts were collected and cultured as previously described (Snider et al., 2010). Primary myoblasts were maintained at or below 70% confluency for proliferation. For differentiation, cells were allowed to reach 95-100% confluency in growth medium. Once confluency was reached, the cells were changed to differentiation medium (F10 media supplemented with 1% horse serum, 10 μg/mL insulin, and 10 μg/mL transferrin, penicillin/streptomycin) and maintained for 4 days. Human RD cells were grown in DMEM in 10% bovine calf serum (Hyclone) and penicillin/streptomycin. The primary myoblasts were transduced with lentivirus carrying DUX-fl, DUX4- or GFP (MOI=15).
Expression microarrays were performed on the transduced cells at 24 hours after transduction as follows. […] Samples were analyzed by Illumina Human Whole Genome microarrays. Probe intensities were corrected, normalized, and summarized by the Lumi package of Bioconductor (Du et al., 2008). Differentially expressed genes were identified by the LIMMA package of Bioconductor (Wettenhall and Smyth, 2004). Gene set enrichment analysis (GSEA) was performed using the Bioconductor GOstats package (Falcon and Gentleman, 2007).

## DUX4-fl: full-length DUX4 protein (SEQ ID NO:110), expressed from lentiviral or pCS2 vectors or in vitro translated
Refseq NM_001012643.2
  fc of MYPOP (expression array): −1.053
Refseq NM_001013407.1
  PRAMEF5 expression fc: 7.35
Refseq NM_001013631.1
  HNRNPCL1 expression fc: 3.484
Refseq NM_001013734.2
  RFPL4B expression fc: 8.34
Refseq NM_001014440.2
  ODF3B fc: −1.1
Refseq NM_001015882.2
  DNAJC25 expression fc: 1.995
Refseq NM_001017425.2
  KCNK2 fc: −1.154
Refseq NM_001017928.2
  CCDC58 expression fc: 2.001
Refseq NM_001017971.1
  fc of ATP6AP1L (expression array): −1.049
Refseq NM_001017995.1
  SH3PXD2B fc: −1.101
Refseq NM_001018011.1, cultured human skeletal muscle
  ZBTB16 expression fc: −2.037
Refseq NM_001018069.1
  fc of SERBP1 (expression array): −0.241
Refseq NM_001024466.1, cultured human skeletal muscle
  SOD2 expression fc: −4.617
Refseq NM_001024630.2
  fc of RUNX2 (expression array): −1.019
Refseq NM_001024646.1
  CLK1 expression fc: 1.84
Refseq NM_001024847.1
  fc of TGFBR2 (expression array): −1.017
Refseq NM_001025235.1
  TSPAN4 fc: −1.175
Refseq NM_001025603.1
  fc of RFX5 (expression array): −1.052
Refseq NM_001032290.1
  PSRC1 fc: −1.126
Refseq NM_001032409.1, cultured human skeletal muscle
  OAS1 expression fc: −4.607
Refseq NM_001033113.1
  ENTPD8 expression fc: 4.073
Refseq NM_001033566.1
  RHOT1 fc: −1.074
Refseq NM_001037333.1
  CYFIP2 fc: −1.081
Refseq NM_001037537.1
  fc of PHYH (expression array): −1.007
Refseq NM_001039348.1
  fc of EFEMP1 (expression array): −1.03
Refseq NM_001039361.1
  PRAMEF10 expression fc: 6.064
Refseq NM_001039481.1
  ETNK1 expression fc: 1.892
Refseq NM_001039615.1
  LOC440053 expression fc: 3.919
Refseq NM_001039771.2
  CBLN3 fc: −1.144
Refseq NM_001040708.1
  HEY1 expression fc: 2.18
Refseq NM_001048201.1
  fc of UHRF1 (expression array): −0.2091
Refseq NM_001048223.1
  DBNDD2 expression fc: 2.987
Refseq NM_001077261.1
  NCOR2 fc: −1.177
Refseq NM_001077493.1
  fc of NFKB2 (expression array): −1.011
Refseq NM_001078174.1
  fc of SLC29A1 (expression array): −0.5111
Refseq NM_001080463.1
  DYNC2H1 expression fc: 3.721
Refseq NM_001080830.1
  PRAMEF12 expression fc: 7.802
Refseq NM_001080998.1
  FRG2B expression fc: 1.993
Refseq NM_001081551.2
  DEFB103A expression fc: 6.442
Refseq NM_001081559.1
  CPSF4 fc: −1.171
Refseq NM_001083112.1
  fc of GPD2 (expression array): −0.3652
Refseq NM_001098199.1
  fc of GPR1 (expression array): −1.054
Refseq NM_001098479.1, cultured human skeletal muscle
  HLA-F expression fc: −1.932
Refseq NM_001098535.1
  RFPL3 expression fc: 8.144
Refseq NM_001098538.1
  PRR4 expression fc: 3.562
Refseq NM_001099684.1
  FAM156B fc: −1.113
Refseq NM_001099790.1
  PRAMEF19 expression fc: 2.336
Refseq NM_001099852.1
  PRAMEF20 expression fc: 4.795
Refseq NM_001099854.1
  PRAMEF14 expression fc: 3.186
Refseq NM_001100114.1
  PRAMEF21 expression fc: 2.487
Refseq NM_001105522.1
  LOC729384 expression fc: 6.832
Refseq NM_001126063.2
  KHDC1L expression fc: 8.012
Refseq NM_001129826.1
  CSAG3 expression fc: 5.871
Refseq NM_001136118.1
  LOC399940 expression fc: 4.727
Refseq NM_001136561.1
  LOC440563 expression fc: 5.312
Refseq NM_001136572.1
  FAM90A7 expression fc: 3.199
Refseq NR_001561.1
  CYCSL1 expression fc: 2.506
Refseq NR_001565.1
  MGC10997 expression fc: 2.426
Refseq NR_002201.1, cultured human skeletal muscle
  FTHL3 expression fc: −2.577
Refseq NR_002204.1, cultured human skeletal muscle
  FTHL11 expression fc: −2.085
Refseq NR_002205.1, cultured human skeletal muscle
  FTHL12 expression fc: −1.948
Refseq NR_002312.1
  RPPH1 expression fc: 2.037
Refseq NR_002727.1
  RFPL1S expression fc: 8.396
Refseq NR_002739.1
  SNORD56 expression fc: 1.855
Refseq NR_002777.2
  fc of TRIM78P (expression array): −0.9991
Refseq NR_002944.2
  HNRPA1L-2 expression fc: 1.921
Refseq NR_003051.2
  RMRP expression fc: 2.267
Refseq NR_003133.1
  fc of LOC400759 (expression array): −0.7622
Refseq NR_003249.1
  HNRPDL expression fc: 2.175
Refseq NR_003264.1
  SDHALP1 expression fc: 3.276
Refseq NR_023371.1
  RN5S9 expression fc: 4.191
Refseq NR_024031.1
  KIAA0114 expression fc: 1.841
Refseq NR_024129.1
  NCRNA00092 expression fc: 2.395
Refseq NR_030228.1
  MIR503 expression fc: 1.91
Refseq NR_031755.1
  MIR2278 expression fc: 2.412
Refseq XM_036729.5
  USP41 fc: −1.127
Refseq XM_061890.11
  TRIM64 expression fc: 4.943
Refseq XM_069743.3
  LOC136157 expression fc: 8.299
Refseq XM_114987.3
  LOC196120 expression fc: 8.179
Refseq XM_116384.2
  LOC646066 expression fc: 4.391
Refseq XM_208203.5
  LOC284428 expression fc: 8.023
Refseq XM_210642.1
  LOC285697 expression fc: 3.783
Refseq XM_292724.5
  LOC342934 expression fc: 2.988
Refseq XM_293943.2
  LOC340096 expression fc: 7.382
Refseq XM_372030.4
  LOC389633 expression fc: 1.807
Refseq XM_372343.1
  LOC390031 expression fc: 8.331
Refseq XM_372543.2
  LOC390530 fc: −1.104
Refseq XM_372780.3
  LOC391045 expression fc: 2.166
Refseq XM_372792.2
  LOC391092 expression fc: 1.837
Refseq XM_373056.1
  LOC391742 expression fc: 5.733
Refseq XM_373059.2
  LOC391747 expression fc: 2.789
Refseq XM_373073.2
  LOC391761 expression fc: 3.009
Refseq XM_373076.3
  LOC391764 expression fc: 5.821
Refseq XM_373077.2
  LOC391766 expression fc: 5.724
Refseq XM_373078.1
  LOC391767 expression fc: 5.492
Refseq XM_374917.3
  LOC399937 expression fc: 1.841
Refseq XM_374919.3
  LOC399939 expression fc: 6.931
Refseq XM_377445.3
  LOC401860 expression fc: 4.272
Refseq XM_377875.2
  LOC402199 expression fc: 4.392
Refseq XM_377879.3
  LOC646103 expression fc: 4.658
Refseq XM_377884.2
  LOC402207 expression fc: 4.903
Refseq XM_495873.4
  LOC440040 expression fc: 7.534
Refseq XM_496956.4
  FAM90A9 expression fc: 2.248
Refseq XM_496961.3
  FAM90A12 expression fc: 1.774
Refseq XM_497258.1
  LOC441584 expression fc: 7.781
Refseq XM_498969.2, cultured human skeletal muscle
  LOC441019 expression fc: −2.107
Refseq XM_499343.2
  PEG10 expression fc: 1.935
Refseq XM_925891.1
  LOC642362 expression fc: 8.016
Refseq XM_926027.2
  LOC642538 expression fc: 1.792
Refseq XM_926073.2
  LOC653111 expression fc: 3.139
Refseq XM_926241.2
  LOC642843 expression fc: 2.728
Refseq XM_926437.2
  LOC653192 expression fc: 8.228
Refseq XM_926449.1
  LOC653194 expression fc: 3.633
Refseq XM_927019.1
  LOC643731 expression fc: 1.903
Refseq XM_927769.1
  LOC653506 fc: −1.144
Refseq XM_928167.2
  LOC645137 expression fc: 2.323
Refseq XM_928224.2
  fc of LOC653583 (expression array): −1.02
Refseq XM_928412.1
  LOC645373 expression fc: 2.891
Refseq XM_928577.2
  LOC645558 expression fc: 4.803
Refseq XM_928680.1
  LOC645669 expression fc: 8.202
Refseq XM_928688.3
  LOC653656 expression fc: 7.897
Refseq XM_928697.2
  LOC653657 expression fc: 7.857
Refseq XM_929644.2
  LOC646698 expression fc: 6.012
Refseq XM_929704.2
  LOC646754 expression fc: 5.11
Refseq XM_929877.1
  LOC646914 expression fc: 2.569
Refseq XM_931359.2
  fc of LOC338758 (expression array): −1.005
Refseq XM_933679.1
  LOC644739 fc: −1.165
Refseq XM_936272.2
  LOC642127 expression fc: 6.112
Refseq XM_936370.2
  LOC642219 expression fc: 4.799
Refseq XM_936463.2
  LOC285299 expression fc: 2.84
Refseq XM_936467.2
  fc of BEXL1 (expression array): −1.018
Refseq XM_937424.1
  LOC653978 expression fc: 3.554
Refseq XM_937570.1
  LOC646508 expression fc: 2.498
Refseq XM_937587.1
  LOC648533 expression fc: 2.284
Refseq XM_938208.2
  LOC342933 expression fc: 3.752
Refseq XM_938420.2
  PRAMEF17 expression fc: 4.223
Refseq XM_938508.1
  fc of LOC649425 (expression array): −0.2065
Refseq XM_938635.2
  LOC649563 expression fc: 2.425
Refseq XM_939249.1
  LOC650167 expression fc: 3.363
Refseq XM_939354.1
  LOC654101 expression fc: 5.034
Refseq XM_939432.1
  MGC61598 expression fc: 2.969
Refseq XM_940443.1
  LOC651308 expression fc: 8.169
Refseq XM_940903.2
  ZC3H5 fc: −1.155
Refseq XM_941060.1
  LOC651816 expression fc: 1.836
Refseq XM_941404.1
  LOC652080 expression fc: 1.987
Refseq XM_941777.1
  LOC652349 expression fc: 2.835
Refseq XM_941875.1
  LOC652433 expression fc: 3.022
Refseq XM_942401.1
  LOC651390 expression fc: 1.937
Refseq XM_001126140.1
  LOC727846 expression fc: 2.175
Refseq XM_001126471.1
  LOC730278 fc: −1.092
Refseq XM_001127571.1, cultured human skeletal muscle
  PARP10 expression fc: −2.064
Refseq XM_001128017.1
  fc of LOC730996 (expression array): −0.2204
Refseq XM_001129035.1
  LOC342900 expression fc: 7.391
Refseq XM_001130065.2
  LOC729368 expression fc: 5.416
Refseq XM_001130308.2
  LOC729458 expression fc: 8.247
Refseq XM_001131061.1
  LOC729694 expression fc: 4.029
Refseq XM_001131072.1
  LOC729698 expression fc: 3.539
Refseq XM_001131081.1
  LOC729700 expression fc: 4.817
Refseq XM_001131091.1
  LOC729706 expression fc: 4.227
Refseq XM_001131132.1
  LOC729724 expression fc: 3.038
Refseq XM_001131140.1
  LOC729731 expression fc: 5.007
